Square brackets hold non-standard residues; d marks the D form. Peptide text beside a SMILES is read from it. pY = N[C@@H](Cc1ccc(OP(=O)(O)O)cc1)C(=O)O; Ahp(2) = CCCCC[C@H](N)C(=O)O; Nle = CCCC[C@H](N)C(=O)O; Nva = CCC[C@H](N)C(=O)O; Abu = CC[C@H](N)C(=O)O

In the experiment the target is Growth factor receptor-bound protein 2 (Homo sapiens) (UniProt P62993). Put plainly: Binding affinity to Grb2 SH2 domain (53 to 163) (unknown origin) expressed in Escherichia coli SG13009 by ITC analysis. In general terms: ITC needs no label: the signal is the heat of the interaction.
Growth factor receptor-bound protein 2 (Homo sapiens), sequence (P62993 whole entry, looked up, the tested form may be a part): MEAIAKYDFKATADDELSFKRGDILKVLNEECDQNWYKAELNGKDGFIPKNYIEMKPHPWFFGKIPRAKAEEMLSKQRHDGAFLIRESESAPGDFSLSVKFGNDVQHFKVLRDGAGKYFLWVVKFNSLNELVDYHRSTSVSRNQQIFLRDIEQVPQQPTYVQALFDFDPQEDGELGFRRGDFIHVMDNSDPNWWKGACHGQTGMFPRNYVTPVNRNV
On to `CCCC[C@H](NC(=O)[C@H](Cc1ccc(OP(=O)(O)O)cc1)NC(C)=O)C(=O)N[C@@H](CC(N)=O)C(N)=O` (Ac-[pY]-[Nle]-Asn-NH2), for which the Ka is 8.4 ×10⁵ /M. The compound `CC(=O)N[C@@H](Cc1ccc(OP(=O)(O)O)cc1)C(=O)N[C@@H](C)C(=O)N[C@@H](CC(N)=O)C(N)=O` (Ac-[pY]-Ala-Asn-NH2) registered a Ka of 2.2 ×10⁵ /M. Compound `C/C=C\[C@H](NC(=O)[C@H](Cc1ccc(OP(=O)(O)O)cc1)NC(C)=O)C(=O)N[C@@H](CC(N)=O)C(N)=O` displayed a Ka of 6.1 ×10⁵ /M. As for `CCCCC[C@H](NC(=O)[C@H](Cc1ccc(OP(=O)(O)O)cc1)NC(C)=O)C(=O)N[C@@H](CC(N)=O)C(N)=O` (Ac-[pY]-[Ahp(2)]-Asn-NH2), the figure is 7.8 ×10⁵ /M. Take `CCC[C@H](NC(=O)[C@H](Cc1ccc(OP(=O)(O)O)cc1)NC(C)=O)C(=O)N[C@@H](CC(N)=O)C(N)=O` (Ac-[pY]-[Nva]-Asn-NH2): the Ka came to 7.6 ×10⁵ /M.

As to `CC[C@H](NC(=O)[C@H](Cc1ccc(OP(=O)(O)O)cc1)NC(C)=O)C(=O)N[C@@H](CC(N)=O)C(N)=O` (Ac-[pY]-[Abu]-Asn-NH2), the Ka worked out at 8.6 ×10⁵ /M.

These data come from ChEMBL document CHEMBL3091435, “Protein-Ligand Interactions: Thermodynamic Effects Associated with Increasing the Length of an Alkyl Chain” (ACS Med Chem Lett, 2013).
